Test results as given in PubChem BioAssay AID1259407 (Chemical Carcinogenesis Research Information System (CCRIS), 2018).
Calls of active or inactive are those of the source. How the calls were made is not given here.

Test system: CCRIS mutagenicity, Ames/micronucleus/aberration tests
Test: CCRIS mutagenicity studies
Settings: Test System: AMES SALMONELLA TYPHIMURIUM
[1] = Strain/Indicator: TA98, Metabolic Activation: NONE, Method: PREINCUBATION
[2] = Strain/Indicator: TA100, Metabolic Activation: NONE, Method: PREINCUBATION
[3] = Strain/Indicator: TA97, Metabolic Activation: NONE, Method: STANDARD PLATE
[4] = Strain/Indicator: TA98, Metabolic Activation: NONE, Method: STANDARD PLATE
[5] = Strain/Indicator: TA100, Metabolic Activation: NONE, Method: STANDARD PLATE

[Cl][Pt-2]([Cl])([Cl])[Cl]
mutagenic call [1]: active; positive
mutagenic call (Strain/Indicator: TA98, Metabolic Activation: RAT, LIVER, S-9, AROCLOR 1254, Method: PREINCUBATION): active; positive
mutagenic call [2]: active; positive
mutagenic call (Strain/Indicator: TA100, Metabolic Activation: RAT, LIVER, S-9, AROCLOR 1254, Method: PREINCUBATION): active; positive

O=C(O)COc1ccc2ccccc2c1
mutagenic call [3]: inactive; negative
mutagenic call (Strain/Indicator: TA97, Metabolic Activation: RAT, LIVER, S-9, AROCLOR 1254, Method: STANDARD PLATE): inactive; negative
mutagenic call [4]: inactive; negative
mutagenic call (Strain/Indicator: TA98, Metabolic Activation: RAT, LIVER, S-9, AROCLOR 1254, Method: STANDARD PLATE): inactive; negative
mutagenic call [5]: inactive; negative
mutagenic call (Strain/Indicator: TA100, Metabolic Activation: RAT, LIVER, S-9, AROCLOR 1254, Method: STANDARD PLATE): inactive; negative
mutagenic call (Strain/Indicator: TA1535, Metabolic Activation: NONE, Method: STANDARD PLATE): inactive; negative
mutagenic call (Strain/Indicator: TA1535, Metabolic Activation: RAT, LIVER, S-9, AROCLOR 1254, Method: STANDARD PLATE): inactive; negative

CC(=O)c1cc2c(cc1C)C(C)(C)C(C)C2C(C)C (stereo not given)
mutagenic call [3]: inactive; negative
mutagenic call (Strain/Indicator: TA97, Metabolic Activation: RAT LIVER S-9, AROCLOR 1254, Method: STANDARD PLATE): inactive; negative
mutagenic call [4]: inactive; negative
mutagenic call (Strain/Indicator: TA98, Metabolic Activation: RAT LIVER S-9, AROCLOR 1254, Method: STANDARD PLATE): inactive; negative
mutagenic call [5]: inactive; negative
mutagenic call (Strain/Indicator: TA100, Metabolic Activation: RAT LIVER S-9, AROCLOR 1254, Method: STANDARD PLATE): inactive; negative
mutagenic call (Strain/Indicator: TA102, Metabolic Activation: NONE, Method: STANDARD PLATE): inactive; negative
mutagenic call (Strain/Indicator: TA102, Metabolic Activation: RAT LIVER S-9, AROCLOR 1254, Method: STANDARD PLATE): inactive; negative

Cc1cccc2c1cc1c3c(cccc32)-c2ccccc2-1
mutagenic call (Strain/Indicator: TA100, Metabolic Activation: RAT, LIVER, S-9, AROCLOR 1254): active; positive

[N-]=[N+]=NC[C@H]1O[C@H](O)[C@@H](O)[C@H](O)[C@@H]1O
mutagenic call [4]: inactive; negative
mutagenic call [5]: active; positive

O=[N+]([O-])c1ccc2oc3ccccc3c2c1
mutagenic call (Strain/Indicator: TA98(1,8-DNP6), Metabolic Activation: NONE, Method: PREINCUBATION): active; positive
mutagenic call (Strain/Indicator: TA98(1,8-DNP6), Metabolic Activation: NONE, Method: SUSPENSION): active; positive
mutagenic call (Strain/Indicator: TA98(1,8-DNP6), Metabolic Activation: RAT, LIVER, S-9, PCB (5%), Method: PREINCUBATION): active; positive
mutagenic call (Strain/Indicator: TA98(NR), Metabolic Activation: NONE, Method: PREINCUBATION): active; positive
mutagenic call (Strain/Indicator: TA98(NR), Metabolic Activation: NONE, Method: SUSPENSION): inactive; negative
mutagenic call (Strain/Indicator: TA98(NR), Metabolic Activation: RAT, LIVER, S-9 (10%), Method: PREINCUBATION): active; positive
mutagenic call (Strain/Indicator: TA98(NR), Metabolic Activation: RAT, LIVER, S-9, 3-METHYLCHOLANTHRENE (10%), Method: PREINCUBATION): active; positive
mutagenic call (Strain/Indicator: TA98(NR), Metabolic Activation: RAT, LIVER, S-9, BETA-NAPHTHOFLAVONE (10%), Method: PREINCUBATION): active; positive
mutagenic call (Strain/Indicator: TA98(NR), Metabolic Activation: RAT, LIVER, S-9, PCB (5%), Method: PREINCUBATION): active; positive
mutagenic call (Strain/Indicator: TA98(NR), Metabolic Activation: RAT, LIVER, S-9, PCB (10%), Method: PREINCUBATION): active; positive
mutagenic call (Strain/Indicator: TA98(NR), Metabolic Activation: RAT, LIVER, S-9, PHENOBARBITAL (10%), Method: PREINCUBATION): active; positive
mutagenic call [1]: active; positive
mutagenic call (Strain/Indicator: TA98, Metabolic Activation: NONE, Method: SUSPENSION): active; positive
mutagenic call (Strain/Indicator: TA98, Metabolic Activation: RAT, LIVER, S-9, PCB (5%), Method: PREINCUBATION): active; positive
mutagenic call (Strain/Indicator: TA98, Metabolic Activation: RAT, LIVER, S-9, PCB, Method: SUSPENSION): active; positive
mutagenic call [2]: inactive; negative
mutagenic call (Strain/Indicator: TA100, Metabolic Activation: NONE, Method: SUSPENSION): inactive; negative
mutagenic call (Strain/Indicator: TA100, Metabolic Activation: RAT, LIVER, S-9, PCB (5%), Method: PREINCUBATION): inactive; negative
mutagenic call (Strain/Indicator: TA100, Metabolic Activation: RAT, LIVER, S-9, PCB, Method: SUSPENSION): inactive; negative

O=[N+]([O-])c1cc2[nH]c3ccc4ccccc4c3c2c2ccccc12
mutagenic call [4]: inactive; negative
mutagenic call (Strain/Indicator: TA98, Metabolic Activation: RAT, LIVER, S-9, 3-METHYLCHOLANTHRENE, Method: STANDARD PLATE): active; positive
mutagenic call [5]: inactive; negative
mutagenic call (Strain/Indicator: TA100, Metabolic Activation: RAT, LIVER, S-9, 3-METHYLCHOLANTHRENE, Method: STANDARD PLATE): inactive; negative

CCOC(=O)c1cc2cc3c4c(c2oc1=O)CCCN4CCC3
mutagenic call (Strain/Indicator: TA1538, Metabolic Activation: NONE, Method: STANDARD PLATE): inactive; negative
mutagenic call (Strain/Indicator: TA1538, Metabolic Activation: RAT, LIVER, S-9, AROCLOR 1254, Method: STANDARD PLATE): inactive; negative

CCc1c2ccccc2c(C)c2c1ccc1ccccc12
mutagenic call (Strain/Indicator: TA98, Method: STANDARD PLATE): inactive; negative
mutagenic call (Strain/Indicator: TA100, Metabolic Activation: RAT, LIVER, S-9, PHENOBARBITAL, Method: STANDARD PLATE): inactive; negative
mutagenic call (Strain/Indicator: TA100, Method: STANDARD PLATE): inactive; negative

Cc1c(N=O)cccc1[N+](=O)[O-]
mutagenic call [1]: inactive; negative
mutagenic call (Strain/Indicator: TA98, Metabolic Activation: RAT, LIVER, S-9, PHENOBARBITAL AND 5,6-BENZOFLAVONE, Method: PREINCUBATION): inactive; negative
mutagenic call [2]: inactive; negative
mutagenic call (Strain/Indicator: TA100, Metabolic Activation: RAT, LIVER, S-9, PHENOBARBITAL AND 5,6-BENZOFLAVONE, Method: PREINCUBATION): inactive; negative
